# Experimental data as given in patent publication US6608179B1, “Antibodies, that bind to HIV-2 transmembrane glycoprotein homodimer (gp 80)” (Institut Pasteur, priority 1988, dated 2003).
# Key:
# [1] = test system: HIV-2 infected cells; conditions: in the presence of monensin; previous study (Rey et al., 1989); cited from earlier work
# [2] = test system: HIV-2 infected CEM cells; assay: Effect of glucosidase inhibitor on production of viral proteins in HIV-2 infected cells; format: cell-based; conditions: castanospermine 1 mM, 16 hr [35S] methionine labeling, culture supernatants
# Method: To confirm that gp80 was produced during the processing of envelope precursor, HIV-2 infected cells were labeled with [^35S] methionine in the absence or presence of the glucosidase inhibitor, castanospermine (Saul et al., 1983). Culture supernatants were then assayed by immunoprecipitation using an HIV-2 positive patient serum which recognizes several viral proteins.
# [3] = biological target: T1, binding of mAb 1H8 to gp80 (Human immunodeficiency virus type 2 subtype A, UniProt P04577); assay: Peptide blocking of antibody signals in Western blot of HIV-2 virus pellet; conditions: 1 μg/ml of peptide p39′
# T1 construct: cleaved by the cellular protease to give the extracellular glycoprotein gp125 and the transmembrane glycoprotein dimer gp80; endogenous in cells; host or cells: virus pellet from culture medium of HIV-2 infected CEM cells
# T1 sequence (P04577 512-858 limits assumed): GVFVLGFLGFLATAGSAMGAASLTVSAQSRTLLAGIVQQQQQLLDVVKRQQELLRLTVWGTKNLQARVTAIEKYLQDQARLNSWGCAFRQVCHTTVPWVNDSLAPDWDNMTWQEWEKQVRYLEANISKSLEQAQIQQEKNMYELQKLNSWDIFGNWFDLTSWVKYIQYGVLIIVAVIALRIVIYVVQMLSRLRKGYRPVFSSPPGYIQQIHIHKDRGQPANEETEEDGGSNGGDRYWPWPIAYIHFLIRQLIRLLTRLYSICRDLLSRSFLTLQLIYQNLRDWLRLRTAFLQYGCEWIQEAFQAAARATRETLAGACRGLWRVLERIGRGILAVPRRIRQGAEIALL
# Method: Extracts from the HIV-2 virus pellets were analyzed by Western blot assay using mAb 1H8 (section mAb) or anti-gp300 polyclonal antibodies (section S). Incubation with each antibody was carried out in the absence (lanes −) or presence (lanes +) of 10 μg of peptide p39′. The results of the autoradiography are shown.
# To show the specificity of mAb 1H8 reactivity with gp80, a Western blot assay using extracts from HIV-2 virus pellet was carried out. After the transfer of proteins, nitrocellulose sheets were incubated with mAb 1H8 or anti-gp300 polyclonal antibodies in the absence or presence of 1 μg/ml of peptide p39′ (FIG. 5). […] In addition, a signal for gp36 was observed, but only after a prolonged exposure of the autoradiogram. […] These observations confirm that the reactivity of mAb 1H8 should be with the 26 amino acid residue corresponding to the amino acids 579 to 604 in the transmembrane glycoprotein of HIV-2. Consequently, a sequence corresponding to that of peptide p39′ should be present in gp80. The reactivity of anti-gp300 antibodies was not modified by peptide p39′. Therefore, these antibodies should interact with other epitopes than that corresponding to peptide 39′. […]
# [4] = test system: HIV-2 infected cells; assay: Incorporation of labeled sugars into HIV-2 glycoproteins in infected cells; format: cell-based; conditions: [3H] glucosamine, fucose, mannose; data not shown
# Text: Extracts from HIV-2 infected cells metabolically labeled with [^3H] glucosamine and [^3H] fucose were immunoprecipitated using mAb 1H8 and anti-gp300 polyclonal antibodies. In accord with the previous results (FIGS. 3-6), anti-gp300 antibodies immunoprecipitated sugar labeled gp300, gp140, gp125, and gp80, whereas mAb 1H8 immunoprecipitated gp300, gp140, and gp80. All these proteins incorporated [^3H] glucosamine, whereas incorporation of [^3H] fucose mainly occurred in gp125 and gp80 (FIG. 7a). In these experiments, the labeling of gp36 with [^3H] glucosamine was observed faintly after a prolonged exposure of the autoradiogram (data not shown; similar to FIG. 1, Rey et al., 1989). The glycoprotein gp80 also can incorporate [^3H] mannose as is the case for gp300, gp140, and gp125 (data not shown).
# For metabolic labeling of proteins, infected cells were incubated for 16 hours at 37° C. in MEM culture without L-methionine and serum, but supplemented with 200 μCi/ml [^35S] methionine. For metabolic labeling of glycoproteins, infected cells were incubated for 16 hours at 37° C. in MEM culture medium lacking serum and glucose but supplemented with 200 μCi/ml ^3H-Fucose or 200 μCi/ml ^3H-glucosamine.
compound,measurement,setting,value
CC[C@@]1([C@@H]2O[C@@H]([C@H]3O[C@@](O)(CO)[C@H](C)C[C@@H]3C)C[C@@H]2C)CC[C@H]([C@]2(C)CC[C@]3(C[C@H](O)[C@@H](C)[C@@H]([C@@H](C)[C@@H](OC)[C@H](C)C(=O)O)O3)O2)O1 [monensin],135-kDa protein (gp135) in HIV-2 infected cells,[1],accumulated
O[C@H]1[C@H](O)[C@@H](O)CN2CC[C@H](O)[C@H]12 [castanospermine],production of gp80 and gp125,[2],markedly reduced
same,production of the major core protein (p26),[2],not significantly affected
VTAIEKYLQDQARLNSWGCAFRQVCH [peptide p39′],effect of peptide on Western blot signals obtained with mAb 1H8,[3],completely abolished
same,effect of peptide on reactivity of anti-gp300 antibodies,[3],not modified
tunicamycin,incorporation of labeled sugars in gp80 and other glycoproteins,[4],completely blocked
